The record followed here is US7855166B2, “Sulfonylamino(thio)carbonyl compounds” (Bayer Cropscience GmbH, priority 2005, dated 2010).

The test system of test [1] is weed plants such as Sinapis alba, Chrysanthemum segetum, Avena sativa, Stellaria media, Echinochloa crus-galli, Lolium multiflorum, Setaria viridis, Abutilon …. Briefly: Pre-emergence effect on weeds (greenhouse pot test, visual scoring). The note with it: applied pre-emergence at a rate of 0.3 kg or less of active substance per hectare; scored after 3 to 4 weeks in comparison to untreated controls. Type of test: in vivo.

In test [2] the test system is weed plants such as Sinapis alba, Echinochloa crus-galli, Lolium multiflorum, Chrysanthemum segetum, Setaria viridis, Abutilon theophrasti, Amaranthus …. Briefly: Post-emergence effect on weeds (greenhouse pot test, visual scoring). Type of test: in vivo. The following applies: applied post-emergence (three-leaf stage) at a rate of 0.3 kg or less of active substance per hectare; scored after about 3 to 4 weeks in comparison to untreated controls.

On to `CCOc1cccc(I)c1S(=O)(=O)NC(=O)n1nc(OCC)n(C2CC2)c1=O` [Compound 1.221], for which the “herbicidal action against weed plants (visual scoring of plant damage or emergence damage)” value in test [1] was “very good herbidical action”. Moreover, the “herbicidal action against weed plants (effect scored visually)” value in test [2] is recorded as “very good herbicidal action”.
The like results for `CCCOc1cccc(I)c1S(=O)(=O)NC(=O)n1nc(OC)n(C)c1=O` [Compound 1.231] were, in that order, “very good herbidical action” and “very good herbicidal action”.
In the case of `CCCOc1cccc(I)c1S(=O)(=O)NC(=O)n1nc(OCCC)n(C)c1=O` [Compound 1.235], the “herbicidal action against weed plants (visual scoring of plant damage or emergence damage)” value in test [1] is reported as “very good herbidical action”. In addition, the “herbicidal action against weed plants (effect scored visually)” value in test [2] is given as “very good herbicidal action”.
Turning to `CCCOc1cccc(I)c1S(=O)(=O)NC(=O)n1nc(OC(C)C)n(C)c1=O` [Compound 1.236], the “herbicidal action against weed plants (visual scoring of plant damage or emergence damage)” value in test [1] was “very good herbidical action”. The “herbicidal action against weed plants (effect scored visually)” value in test [2] is recorded as “very good herbicidal action”.
The matching figures for `CCCOc1cccc(I)c1S(=O)(=O)NC(=O)n1nc(SCC)n(C)c1=O` [Compound 1.237]: “very good herbidical action” and “very good herbicidal action”.
The like results for `CCCOc1cccc(I)c1S(=O)(=O)NC(=O)n1nc(OC)n(C2CC2)c1=O` [Compound 1.238] were, in that order, “very good herbidical action” and “very good herbicidal action”.
As for `CCCOc1cccc(I)c1S(=O)(=O)NC(=O)n1nc(OCC)n(C2CC2)c1=O` [Compound 1.241], the “herbicidal action against weed plants (visual scoring of plant damage or emergence damage)” value in test [1] was “very good herbidical action”. In addition, in test [2], the “herbicidal action against weed plants (effect scored visually)” value is listed as “very good herbicidal action”.
For `CCCOc1cccc(I)c1S(=O)(=O)NC(=O)n1nc(OCCC)n(C2CC2)c1=O` [Compound 1.244], the “herbicidal action against weed plants (visual scoring of plant damage or emergence damage)” value in test [1] was “very good herbidical action”. In addition, in test [2], the “herbicidal action against weed plants (effect scored visually)” value is given as “very good herbicidal action”.
The matching figures for `COc1nn(C(=O)NS(=O)(=O)c2c(I)cccc2OC(C)C)c(=O)n1C` [Compound 1.251]: “very good herbidical action” and “very good herbicidal action”.
The like results for `CCOc1nn(C(=O)NS(=O)(=O)c2c(I)cccc2OC(C)C)c(=O)n1C` [Compound 1.254] were, in that order, “very good herbidical action” and “very good herbicidal action”.
For the compound `CCCOc1nn(C(=O)NS(=O)(=O)c2c(I)cccc2OC(C)C)c(=O)n1C` [Compound 1.255], the “herbicidal action against weed plants (visual scoring of plant damage or emergence damage)” value in test [1] is listed as “very good herbidical action”. Besides, the “herbicidal action against weed plants (effect scored visually)” value in test [2] is given as “very good herbicidal action”.
The like results for `CC(C)Oc1cccc(I)c1S(=O)(=O)NC(=O)n1nc(OC(C)C)n(C)c1=O` [Compound 1.256] were, in that order, “very good herbidical action” and “very good herbicidal action”.
The like results for `COc1nn(C(=O)NS(=O)(=O)c2c(I)cccc2OC(C)C)c(=O)n1C1CC1` [Compound 1.258] were, in that order, “very good herbidical action” and “very good herbicidal action”.
Take `CCOc1nn(C(=O)NS(=O)(=O)c2c(I)cccc2OC(C)C)c(=O)n1C1CC1` [Compound 1.261]: in test [1], the “herbicidal action against weed plants (visual scoring of plant damage or emergence damage)” value was “very good herbidical action”. Further, the “herbicidal action against weed plants (effect scored visually)” value in test [2] is “very good herbicidal action”.
Consider `CCCOc1nn(C(=O)NS(=O)(=O)c2c(I)cccc2OC(C)C)c(=O)n1C1CC1` [Compound 1.264], for which the “herbicidal action against weed plants (visual scoring of plant damage or emergence damage)” value in test [1] is listed as “very good herbidical action”. In addition, in test [2], the “herbicidal action against weed plants (effect scored visually)” value is “very good herbicidal action”.
Take `CCCCOc1cccc(I)c1S(=O)(=O)NC(=O)n1nc(OC)n(C)c1=O` [Compound 1.273]: the “herbicidal action against weed plants (visual scoring of plant damage or emergence damage)” value in test [1] is recorded as “very good herbidical action”. Besides, the “herbicidal action against weed plants (effect scored visually)” value in test [2] is reported as “very good herbicidal action”.
Take `CCCCOc1cccc(I)c1S(=O)(=O)NC(=O)n1nc(OCC)n(C)c1=O` [Compound 1.274]: the “herbicidal action against weed plants (visual scoring of plant damage or emergence damage)” value in test [1] was “very good herbidical action”. The “herbicidal action against weed plants (effect scored visually)” value in test [2] is “very good herbicidal action”.
The matching figures for `CCCCOc1cccc(I)c1S(=O)(=O)NC(=O)n1nc(OCCC)n(C)c1=O` [Compound 1.275]: “very good herbidical action” and “very good herbicidal action”.
On to `CCCCOc1cccc(I)c1S(=O)(=O)NC(=O)n1nc(OC(C)C)n(C)c1=O` [Compound 1.276], for which, in test [1], the “herbicidal action against weed plants (visual scoring of plant damage or emergence damage)” value was “very good herbidical action”. For the same compound, the “herbicidal action against weed plants (effect scored visually)” value in test [2] is on record as “very good herbicidal action”.
In the case of `CCCCOc1cccc(I)c1S(=O)(=O)NC(=O)n1nc(OC)n(C2CC2)c1=O` [Compound 1.278], the “herbicidal action against weed plants (visual scoring of plant damage or emergence damage)” value in test [1] was “very good herbidical action”. Moreover, the “herbicidal action against weed plants (effect scored visually)” value in test [2] is reported as “very good herbicidal action”.
As for `CCCCOc1cccc(I)c1S(=O)(=O)NC(=O)n1nc(OCC)n(C2CC2)c1=O` [Compound 1.279], the “herbicidal action against weed plants (visual scoring of plant damage or emergence damage)” value in test [1] is “very good herbidical action”. In addition, the “herbicidal action against weed plants (effect scored visually)” value in test [2] is on record as “very good herbicidal action”.
The matching figures for `CCCCOc1cccc(I)c1S(=O)(=O)NC(=O)n1nc(OCCC)n(C2CC2)c1=O` [Compound 1.280]: “very good herbidical action” and “very good herbicidal action”.
Consider `CCC(C)Oc1cccc(I)c1S(=O)(=O)NC(=O)n1nc(OC)n(C)c1=O` (stereo not shown) [Compound 1.281], for which, in test [1], the “herbicidal action against weed plants (visual scoring of plant damage or emergence damage)” value is “very good herbidical action”. Also, the “herbicidal action against weed plants (effect scored visually)” value in test [2] is given as “very good herbicidal action”.
In the case of `CCC(C)Oc1cccc(I)c1S(=O)(=O)NC(=O)n1nc(OC)n(C2CC2)c1=O` (stereo not shown) [Compound 1.286], in test [1], the “herbicidal action against weed plants (visual scoring of plant damage or emergence damage)” value was “very good herbidical action”. Also, in test [2], the “herbicidal action against weed plants (effect scored visually)” value is “very good herbicidal action”.
Take `COc1nn(C(=O)NS(=O)(=O)c2c(I)cccc2OCC(C)C)c(=O)n1C` [Compound 1.289]: the “herbicidal action against weed plants (visual scoring of plant damage or emergence damage)” value in test [1] is “very good herbidical action”. Moreover, the “herbicidal action against weed plants (effect scored visually)” value in test [2] is reported as “very good herbicidal action”.
For the compound `CCOc1nn(C(=O)NS(=O)(=O)c2c(I)cccc2OCC(C)C)c(=O)n1C` [Compound 1.290], the “herbicidal action against weed plants (visual scoring of plant damage or emergence damage)” value in test [1] was “very good herbidical action”. For the same compound, the “herbicidal action against weed plants (effect scored visually)” value in test [2] is reported as “very good herbicidal action”.
